Assay results as given in the NIST ThermoML archive (doi:10.1016/j.jct.2005.03.020).

Legend:
[1] = xn = mol fraction of the nth substance listed; conditions: 298.15 K, 101.33 kPa, Liquid
[2] = excess molar enthalpy (molar enthalpy of mixing); xn = mol fraction of the nth substance listed; conditions: 298.15 K, 101.33 kPa, Liquid

ClCCCCl [1,3-dichloropropane] + CCOC(=O)CC
[1]
Conditions	mass density [kg/m3]
x2 = 0.0533	1159.49
x2 = 0.1039	1141.98
x2 = 0.1552	1124.63
x2 = 0.2595	1090.43
x2 = 0.3141	1073.08
x2 = 0.3691	1056.04
x2 = 0.4264	1038.67
x2 = 0.4849	1021.36
x2 = 0.6033	987.47
x2 = 0.666	970.14
x2 = 0.7288	953.17
x2 = 0.7937	935.99
x2 = 0.861	918.65
x2 = 0.9271	901.62

ClCCCCCl [1,4-dichlorobutane] + CCOC(=O)CC
[1]
Conditions	mass density [kg/m3]
x2 = 0.0587	1117.82
x2 = 0.1153	1103.37
x2 = 0.1718	1088.99
x2 = 0.2299	1074.24
x2 = 0.2859	1060.13
x2 = 0.3447	1045.32
x2 = 0.403	1030.76
x2 = 0.4615	1016.16
x2 = 0.5233	1000.86
x2 = 0.5825	986.22
x2 = 0.6382	972.47
x2 = 0.698	957.78
x2 = 0.8187	928.2
x2 = 0.8774	913.87
x2 = 0.9378	899.14

ClCCCCl [1,3-dichloropropane] + CCOC=O
[1]
Conditions	mass density [kg/m3]
x2 = 0.076	1161.06
x2 = 0.1432	1145.36
x2 = 0.2073	1130.02
x2 = 0.2696	1114.94
x2 = 0.3338	1099.05
x2 = 0.394	1083.9
x2 = 0.4558	1068.05
x2 = 0.5152	1052.57
x2 = 0.5731	1037.18
x2 = 0.6297	1021.91
x2 = 0.6862	1006.34
x2 = 0.7413	990.94
x2 = 0.794	975.98
x2 = 0.8475	960.54
x2 = 0.8994	945.31
x2 = 0.9494	930.3

ClCCCCCCl [1,5-dichloropentane] + CCOC(=O)CC
[1]
Conditions	mass density [kg/m3]
x2 = 0.0734	1081.12
x2 = 0.129	1070.38
x2 = 0.1956	1057.38
x2 = 0.2575	1045.16
x2 = 0.3202	1032.63
x2 = 0.4361	1008.96
x2 = 0.5001	995.63
x2 = 0.5582	983.34
x2 = 0.6155	971.03
x2 = 0.6735	958.42
x2 = 0.7283	946.34
x2 = 0.785	933.66
x2 = 0.8394	921.33
x2 = 0.8926	909.15
x2 = 0.9451	896.94

ClCCCCCCCl [1,6-dichlorohexane] + CCOC=O
[1]
Conditions	mass density [kg/m3]
x2 = 0.1021	1054.55
x2 = 0.1921	1045.86
x2 = 0.2781	1036.7
x2 = 0.357	1027.68
x2 = 0.4266	1019.06
x2 = 0.4923	1010.37
x2 = 0.5555	1001.35
x2 = 0.6677	983.71
x2 = 0.7169	975.18
x2 = 0.7649	966.4
x2 = 0.8091	957.78
x2 = 0.8515	949.08
x2 = 0.8915	940.41
x2 = 0.929	931.82
x2 = 0.9647	923.23

CCCCC(=O)OCC [ethyl pentanoate] + ClCCCCCl
Conditions	excess molar enthalpy [kcal/mol]	mass density [kg/m3]
[1], x1 = 0.0426	–	1118.97
[1], x1 = 0.0881	–	1103.57
[1], x1 = 0.1345	–	1088.34
[1], x1 = 0.1844	–	1072.46
[1], x1 = 0.2407	–	1055.13
[1], x1 = 0.2932	–	1039.54
[1], x1 = 0.3462	–	1024.28
[1], x1 = 0.4021	–	1008.72
[1], x1 = 0.4541	–	994.67
[1], x1 = 0.5187	–	977.83
[1], x1 = 0.5829	–	961.7
[1], x1 = 0.6452	–	946.59
[1], x1 = 0.7045	–	932.66
[1], x1 = 0.7796	–	915.67
[1], x1 = 0.8521	–	899.89
[1], x1 = 0.925	–	884.57
[2], x2 = 0.0443	-0.00368	–
[2], x2 = 0.0938	-0.00985	–
[2], x2 = 0.1472	-0.0156	–
[2], x2 = 0.2021	-0.0229	–
[2], x2 = 0.2576	-0.0317	–
[2], x2 = 0.3103	-0.04	–
[2], x2 = 0.3615	-0.0492	–
[2], x2 = 0.4093	-0.0553	–
[2], x2 = 0.4542	-0.0607	–
[2], x2 = 0.4637	-0.062	–
[2], x2 = 0.5038	-0.0642	–
[2], x2 = 0.5509	-0.0653	–
[2], x2 = 0.6143	-0.0639	–
[2], x2 = 0.6866	-0.0592	–
[2], x2 = 0.7631	-0.0504	–
[2], x2 = 0.8429	-0.0372	–
[2], x2 = 0.9262	-0.0202	–

ClCCCCCl [1,4-dichlorobutane] + CCOC(C)=O
Conditions	excess molar enthalpy [kcal/mol]	mass density [kg/m3]
[1], x2 = 0.0693	–	1118.08
[1], x2 = 0.1314	–	1104.46
[1], x2 = 0.1955	–	1090.4
[1], x2 = 0.2579	–	1076.44
[1], x2 = 0.3205	–	1062.24
[1], x2 = 0.3812	–	1048.26
[1], x2 = 0.442	–	1034.12
[1], x2 = 0.5019	–	1019.95
[1], x2 = 0.5602	–	1006.01
[1], x2 = 0.6172	–	992.21
[1], x2 = 0.6757	–	977.84
[1], x2 = 0.7842	–	950.68
[1], x2 = 0.8386	–	936.74
[1], x2 = 0.8929	–	922.7
[1], x2 = 0.9453	–	908.9
[2], x2 = 0.0692	-0.00201	–
[2], x2 = 0.1414	-0.00473	–
[2], x2 = 0.2133	-0.00848	–
[2], x2 = 0.2818	-0.0131	–
[2], x2 = 0.347	-0.0181	–
[2], x2 = 0.4035	-0.0231	–
[2], x2 = 0.4514	-0.0274	–
[2], x2 = 0.4919	-0.0309	–
[2], x2 = 0.5264	-0.0339	–
[2], x2 = 0.5571	-0.0363	–
[2], x2 = 0.5836	-0.0386	–
[2], x2 = 0.6072	-0.0403	–
[2], x2 = 0.6278	-0.0414	–
[2], x2 = 0.6525	-0.0423	–
[2], x2 = 0.7106	-0.0388	–
[2], x2 = 0.7719	-0.0344	–
[2], x2 = 0.8337	-0.0275	–
[2], x2 = 0.8915	-0.0193	–
[2], x2 = 0.9475	-0.00997	–

ClCCCCCCl [1,5-dichloropentane] + CCOC(C)=O
[1]
Conditions	mass density [kg/m3]
x2 = 0.078	1082.84
x2 = 0.1498	1071.08
x2 = 0.2187	1059.41
x2 = 0.2869	1047.48
x2 = 0.3508	1035.92
x2 = 0.4146	1024.01
x2 = 0.5355	1000.44
x2 = 0.5943	988.46
x2 = 0.6527	976.18
x2 = 0.7039	965.12
x2 = 0.7557	953.57
x2 = 0.8066	941.94
x2 = 0.8572	930.03
x2 = 0.9059	918.17
x2 = 0.9527	906.46
